US9801387B2, “Compositions comprising a biological control agent and an insecticide” (Bayer CropScience AG, priority 2012, dated 2017)

Tests used:
Format in all cases: in vivo
Myzus persicae = Myzus persicae - spray test (MYZUPE); settings: mortality
Description: (§1) For all examples the efficiencies of the compositions comprising at least one BCA and at least one specific insecticide has been determined by the “Colby-formula”: The expected efficacy of a given combination of two compounds is calculated as follows (see Colby, S. R., “Calculating Synergistic and antagonistic Responses of Herbicide Combinations”, Weeds 15, pp. 20-22, 1967): • If • X is the efficacy expressed in % mortality of the untreated control for test compound A at a concentration of m ppm respectively m g/ha, • Y is the efficacy expressed in % mortality of the untreated control for test compound B at a concentration of n ppm respectively n g/ha, • E is the efficacy expressed in % mortality of the untreated control using the mixture of A and B at m and n ppm respectively m and n g/ha, then is E=X+Y−(X×Y/100)
(§2) If the observed insecticidal efficacy of the combination is higher than the one calculated as “E”, then the combination of the two compounds is more than additive, i.e., there is a synergistic effect.
Myzus persicae—Spray Test (MYZUPE) […]
(§3) After the specified period of time, mortality in % is determined. […] The mortality values determined thus are recalculated using the Colby-formula (see above).

Tetranychus urticae = Tetranychus urticae - spray test, OP-resistant; settings: mortality, French beans sprayed
Description: as §1, §2
Tetranychus urticase—Spray Test, OP-resistant […]
as §3

Phaedon cochleariae = Phaedon cochleariae - spray test; settings: mortality of larvae, 100 g ai/ha
Description: as §1, §2
Phaedan Cochleariae—Spray Test […]
as §3

| Compound | Efficacy in % after 1^d (Myzus persicae; Chinese cabbage leaf-disks sprayed, 1 d, 4 g/ha) | Efficacy in % after 6^d (Tetranychus urticae; 6 d, 20 g ai/ha) | Efficacy in % after 6^d (Phaedon cochleariae) | Efficacy in % after 6^d (Myzus persicae; 6 d, 100 g/ha) | Efficacy in % after 2^d (Tetranychus urticae; 2 d, 100 g ai/ha) |
| --- | --- | --- | --- | --- | --- |
| O=C1C=C(N(Cc2ccc(Cl)nc2)CC(F)F)CO1 [Flupyradifurone (I262), Flupyradifurone, reference compound] | 0% | 0% | – | – | – |
| Cc1cc(F)c(-n2nc(C(F)(F)F)nc2N)cc1[S+]([O-])CC(F)(F)F (centres unmarked) [I277, 1-{2-fluoro-4-methyl-5-[(2,2,2-trifluorethyl)sulfinyl]phenyl}-3-(trifluoromethyl)-1H-1,2,4-triazol-5-amine] | – | – | 0% | 0% | 0% |
